Data set [1] can be described thus: Cytotoxicity against African green monkey Vero E6 cells. In kind it is toxicity, cell-based, Vero C1008. The following applies: chlorocebus sabaeus.
The test system of data set [2] is Zika virus. Briefly: Antiviral activity against ZIKV infected in Vero E6 cells assessed as inhibition of viral replication. The note with it: Vero C1008.
The nature of data set [3]: Cytotoxicity against African green monkey Vero cells infected with ZIKV MR766 incubated for 48 hrs by immunofluorescence analysis. The following applies: chlorocebus sabaeus, Vero cells infected with ZIKV PRVABC59.
The test system of data set [4] is Zika virus. Briefly: Antiviral activity against ZIKV MR766 infected in Vero cells measured after 48 hrs by immunofluorescence analysis.
The test system of data set [5] is Zika virus. Briefly: Antiviral activity against ZIKV BR infected in cervical cells. The note with it: Cervical cell.
Data set [6] is described as follows: Selectivity index, ratio of CC50 for African green monkey Vero cells infected with ZIKV MR766 to EC50 for ZIKV MR766 infected in Vero cells.
Another data set addresses Cytochrome P450 2D6 (Homo sapiens, UniProt P10635). Briefly: Inhibition of CYP2D6 in human liver microsomes using dextromethorphan as substrate preincubated for 5 mins followed by substrate and NADPH addition and measured after 20 mins by LC-MS/MS analysis.
The nature of data set [7]: Stability in rat liver microsomes assessed as compound remaining at 1 uM incubated for 30 mins by LC-MS/MS analysis.
Data set [8] can be described thus: Stability in mouse liver microsomes assessed as compound remaining at 1 uM incubated for 30 mins by LC-MS/MS analysis. In general terms: Liver microsomes are vesicles of endoplasmic reticulum, rich in cytochrome P450 enzymes.
The target in a further data set is hERG (Homo sapiens, UniProt Q12809). Put plainly: Inhibition of hERG at 10 uM incubated for 2 hrs relative to control.
Sequence of hERG (Q12809 whole entry): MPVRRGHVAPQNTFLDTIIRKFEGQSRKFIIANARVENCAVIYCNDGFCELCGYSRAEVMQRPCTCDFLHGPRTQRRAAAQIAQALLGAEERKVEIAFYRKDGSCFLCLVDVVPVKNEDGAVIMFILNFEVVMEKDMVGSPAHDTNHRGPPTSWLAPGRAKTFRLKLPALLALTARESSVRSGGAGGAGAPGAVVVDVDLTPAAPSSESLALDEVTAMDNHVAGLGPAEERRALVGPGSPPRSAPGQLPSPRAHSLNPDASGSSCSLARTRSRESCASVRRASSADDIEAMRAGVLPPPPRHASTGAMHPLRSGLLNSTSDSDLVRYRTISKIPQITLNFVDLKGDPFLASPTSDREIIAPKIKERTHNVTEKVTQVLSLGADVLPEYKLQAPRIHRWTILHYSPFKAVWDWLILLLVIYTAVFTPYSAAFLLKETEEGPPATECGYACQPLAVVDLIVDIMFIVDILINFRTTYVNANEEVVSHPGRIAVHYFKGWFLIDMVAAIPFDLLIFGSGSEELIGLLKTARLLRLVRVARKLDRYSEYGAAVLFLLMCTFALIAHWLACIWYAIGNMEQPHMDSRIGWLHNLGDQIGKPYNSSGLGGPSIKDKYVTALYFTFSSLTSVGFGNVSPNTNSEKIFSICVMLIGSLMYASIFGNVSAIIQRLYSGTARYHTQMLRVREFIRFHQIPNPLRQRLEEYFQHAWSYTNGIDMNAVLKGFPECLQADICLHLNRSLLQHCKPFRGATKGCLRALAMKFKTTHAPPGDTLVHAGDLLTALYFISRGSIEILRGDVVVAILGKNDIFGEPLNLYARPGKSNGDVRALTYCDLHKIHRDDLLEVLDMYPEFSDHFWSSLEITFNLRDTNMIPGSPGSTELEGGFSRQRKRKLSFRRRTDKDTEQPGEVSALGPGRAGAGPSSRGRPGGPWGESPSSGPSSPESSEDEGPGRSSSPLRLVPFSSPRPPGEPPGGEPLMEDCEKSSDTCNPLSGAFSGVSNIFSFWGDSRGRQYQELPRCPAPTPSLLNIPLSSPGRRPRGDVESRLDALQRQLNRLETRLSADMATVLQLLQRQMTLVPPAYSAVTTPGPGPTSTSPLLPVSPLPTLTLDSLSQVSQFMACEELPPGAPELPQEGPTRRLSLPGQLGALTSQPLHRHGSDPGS
Data set [9] can be described thus: Stability in human liver microsomes assessed as compound remaining at 1 uM incubated for 30 mins by LC-MS/MS analysis.
Data set [10] can be described thus: Plasma protein binding in mouse at 5 uM incubated for 4 hrs under shaking condition by LC-MS/MS analysis.
Data set [11] in a line: Plasma protein binding in human at 5 uM incubated for 4 hrs under shaking condition by LC-MS/MS analysis.

Structures are written as SMILES. A value given as a limit tells only on which side of the number the result lay.

Sequence of Cytochrome P450 2D6 (P10635 whole entry): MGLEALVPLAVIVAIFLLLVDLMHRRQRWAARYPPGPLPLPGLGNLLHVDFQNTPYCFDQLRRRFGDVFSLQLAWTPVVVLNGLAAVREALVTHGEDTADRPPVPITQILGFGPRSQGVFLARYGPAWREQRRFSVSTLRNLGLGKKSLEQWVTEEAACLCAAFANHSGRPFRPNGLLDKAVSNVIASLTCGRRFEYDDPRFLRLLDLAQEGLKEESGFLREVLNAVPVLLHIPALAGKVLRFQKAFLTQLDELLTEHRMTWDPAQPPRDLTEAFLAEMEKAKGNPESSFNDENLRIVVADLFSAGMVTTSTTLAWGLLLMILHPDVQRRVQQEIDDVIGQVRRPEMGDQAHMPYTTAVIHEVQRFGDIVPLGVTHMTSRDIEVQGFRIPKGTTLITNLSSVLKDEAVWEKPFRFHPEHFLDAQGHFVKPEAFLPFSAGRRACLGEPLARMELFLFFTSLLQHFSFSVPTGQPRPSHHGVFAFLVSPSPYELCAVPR

One may read the CC50 as the concentration giving 50% cytotoxicity. The term EC50 denotes the concentration giving half of the maximal effect. Regarding `CCn1c2ccccc2c2cc(NC(=O)Nc3ccc(N)cc3C)ccc21`, the half-maximal cytotoxic concentration (CC50) in data set [1] was above 12.5 µM. Besides, the EC50 in the data set on Zika virus [2] was determined as 1.67 µM.
In data set [3], `c1ccc(-c2nnc(-c3ccc(NCc4cccnc4)cc3)o2)cc1` had a half-maximal cytotoxic concentration (CC50) at 48 h above 100 µM. For the same molecule, the EC50 with Zika virus [4] was above 100 µM.
In the data set on Zika virus [4], `Fc1cccc(-c2cc(-c3ccc(NCc4cccnc4)cc3)no2)c1` gave an EC50 of 3.3 µM.
In the case of `O=S(=O)(NCCCCNc1ccnc2cc(Cl)ccc12)c1ccc(Cl)cc1`, a half-maximal response in the data set on Zika virus [5] (EC50) required 3.2 µM.
As for `c1ccc(-c2cnc(-c3ccc(NCc4cccnc4)cc3)o2)cc1`, in [6], the selectivity ratio worked out at 2.5. For the same molecule, the CC50 at 48 h in data set [3] was 12.9 µM. A half-maximal response with Zika virus [4] (EC50) required 5.1 µM.
By IC50 is commonly meant the concentration at which inhibition is half-maximal. In data set [3], `c1cncc(CNc2ccc(-c3cc(-c4cncnc4)on3)cc2)c1` gave a CC50 at 48 h above 100 µM. The molecule further showed an IC50 on Cytochrome P450 2D6 of 3.5 µM.
As for `Fc1ccc(-c2cc(-c3ccc(NCc4cccnc4)cc3)no2)cc1`, the CC50 at 48 h in data set [3] was above 100 µM.
With `FC(F)(F)c1cc(-c2cc(-c3ccc(NCc4cccnc4)cc3)no2)ccn1`, the CC50 at 48 h in data set [3] was above 100 µM.
As for `c1ccc(-c2nc(-c3ccc(NCc4cccnc4)cc3)c[nH]2)cc1`, in data set [6], the selectivity ratio came to 2.6. Further, the CC50 at 48 h in data set [3] came to 94.1 µM. Also, the EC50 in the data set with Zika virus [4] was 36.8 µM.
In data set [3], `FC(F)(F)Oc1ccc(-c2cc(-c3ccc(NCc4cccnc4)cc3)no2)nc1` returned a half-maximal cytotoxic concentration (CC50) at 48 h above 100 µM.
In data set [3], `N#Cc1ccc(-c2cc(-c3ccc(NCc4cccnc4)cc3)no2)cc1` yielded a cytotoxic concentration (CC50) at 48 h above 100 µM. In addition, the half-maximal inhibitory concentration (IC50) on Cytochrome P450 2D6 is above 99 µM.
Regarding `FC(F)(F)Oc1ccccc1-c1cc(-c2ccc(NCc3cccnc3)cc2)no1`, the EC50 in the data set with Zika virus [4] worked out at 44.5 µM.
In [3], `COc1ccccc1-c1cc(-c2ccc(NCc3cccnc3)cc2)no1` returned a CC50 at 48 h above 100 µM. The molecule also yielded an IC50 at Cytochrome P450 2D6 of 27.1 µM.
As for `Cn1cc(-c2ccc(NCc3cccnc3)cc2)nc1-c1ccccc1`, the 50% cytotoxic concentration (CC50) at 48 h in data set [3] is above 100 µM. In the data set with Zika virus [4], this molecule showed an EC50 above 100 µM.
In general, amount remaining refers to what is left of the initial amount, in per cent. The term inhibition denotes the relative decrease from the control value, in per cent. The fraction unbound is the share of the substance not bound to proteins or other matrix. Consider `FC(F)(F)c1ccc(-c2cc(-c3ccc(NCc4cccnc4)cc3)no2)cc1`, for which the share remaining at 0.5 h, 1 µM stood at 51.7% in data set [7], 79.6% in data set [8] and 71.5% in data set [9]. The molecule further displayed a CC50 at 48 h in data set [3] above 100 µM. In addition, the inhibition at 2 h, 10 µM at hERG is 5.37%. For the same molecule, the fraction unbound at 4 h, 5 µM is 0.003 in data set [10] and 0.0047 in data set [11]. This molecule also returned a half-inhibitory concentration (IC50) against Cytochrome P450 2D6 above 99 µM.
As for `c1ccc(-c2noc(-c3ccc(NCc4cccnc4)cc3)n2)cc1`, the selectivity ratio in data set [6] was 11.6. In addition, the CC50 at 48 h in data set [3] is 61.4 µM. The molecule further showed an EC50 with Zika virus [4] of 5.3 µM.

(Values after ChEMBL document CHEMBL5576159, “Discovery and structure-activity relationship study of novel isoxazole-based small molecules targeting Zika virus infections” (RSC Med Chem, 2024).)
